Experimental data: patent publication US20060229316A1, “Novel antiinfective compounds, process for their preparation and pharmaceutical compositions containing them” (priority 2002, published 2006)
≈ marks a conversion by molar mass, not a printed value. Read-outs that look alike come from different tables or passages of the source.

Legend:
[1] = system: Methicillin resistant Staphylococus aureus 653SP; test: MIC by microbroth dilution, first column headed SA (guide: MRSA); format: cell-based, Staphylococcus aureus; conditions: for MIC: Staphylococcus aureus, read-out: MIC (μg/ml) in vitro activity in gram positive organisms, SA
Text: (§1) The pharmaceutically acceptable compounds of the present invention are useful antibacterial agents having a good spectrum of activity in vitro and against standard Gram-positive organisms, which are used to screen for activity against pathogenic bacteria. […] The antibacterial spectrum and potency of a particular compound may be determined in a standard test system. The activity is described in terms of the minimum inhibitory concentration (MIC) determined by microbroth dilution technique as per NCCLS standards.
(§2) The minimum inhibitory concentrations (MIC's) of the compounds for the microorganisms listed in Table A were determined by preparing working solution for each compound of concentration of 128 μg/ml after dissolving it in DMSO. Two-fold serial dilution of the above solution was prepared in duplicates, using Mueller Hinton Broth, in 96 well Tissue culture plate with cover flat bottom wells to give a final volume of […] and concentration of compound ranging from 64 μg/ml-0.12 μg/ml. 30 μg/ml of Standard suspension of each organism which was prepared with turbidity equivalent to the 1:10 diluted 0.5 McFarland standard with density 10^7 CFU/ml, was added to each well to get approximately a density of 10^5 CFU/ml. These 96-well Tissue culture plate containing the test samples and positive and negative controls, were incubated at 37° C. for 16-18 hrs. The wells were visually inspected for growth and were also read at 630 nm by Automated Microplate Reader [(EL800) Trinity biotech.] and the MIC's were recorded as the lowest concentration of drug which inhibits the growth of bacteria.
(§3) The compounds of the present invention have useful activity against a variety of organisms. The in vitro activity of compounds of the present invention can be assessed by standard testing procedures such as the determination of minimum inhibitory concentration (MIC) by standard “Microdilution method” as described elsewhere in the specification. The pharmacokinetic profiling of the compounds were also done according to the protocol described in this specification. The activities of representative compounds of the present invention are given below in the following table.
MRSA: Methicillin resistant Staphylococus aureus 653SP

[2] = system: Staphylococcus epidermidis ATCC 12228; test: MIC by microbroth dilution, SE; format: cell-based
Text: as §1, §2, §3
SE: Staphylococcus epidermidis ATCC 12228

[3] = system: Enterococcus faecalis ATCC 29212; test: MIC by microbroth dilution, EF; format: cell-based
Text: as §1, §2, §3
EF: Enterococcus faecalis ATCC 29212

[4] = system: Staphylococus aureus ATCC 33591; test: MIC by microbroth dilution, SA; format: cell-based, Staphylococcus aureus; conditions: for MIC: Staphylococcus aureus
Text: as §1, §2, §3
SA: Staphylococus aureus ATCC 33591

[5] = SA, Mueller Hinton Broth, 37° C., 16-18 hrs
[6] = ATCC12228, Staphylococcus epidermidis ATCC 12228, Mueller Hinton Broth, 37° C., 16-18 hrs, read-out: MIC (μg/ml) in vitro activity in gram positive organisms, SE
[7] = ATCC29212, Enterococcus faecalis ATCC 29212, Mueller Hinton Broth, 37° C., 16-18 hrs, read-out: MIC (μg/ml) in vitro activity in gram positive organisms, EF
[8] = ATCC33591, Staphylococus aureus ATCC 33591, Mueller Hinton Broth, 37° C., 16-18 hrs, read-out: MIC (μg/ml) in vitro activity in gram positive organisms, SA
[9] = Staphylococcus epidermidis, ATCC12228, read-out: MIC (μg/ml) in vitro activity in gram positive organisms, SE
[10] = Enterococcus faecalis, ATCC29212, read-out: MIC (μg/ml) in vitro activity in gram positive organisms, EF
[11] = ATCC33591, read-out: MIC (μg/ml) in vitro activity in gram positive organisms, SA
[12] = Enterococcus faecalis ATCC 29212, Mueller Hinton Broth, 37° C., 16-18 hrs
[13] = Staphylococus aureus ATCC 33591, Mueller Hinton Broth, 37° C., 16-18 hrs

Molecule | MIC [1, 5] [µg/mL] | MIC [2, 6] [µg/mL] | MIC [3, 7] [µg/mL] | MIC [4, 8] [µg/mL] | other results
NC(=S)NC[C@H]1CN(c2ccc(N3CCN(C(=O)C=Cc4ccco4)CC3)c(F)c2)C(=O)O1 [Compound 127, (S)-N-[3-(3-Fluoro-4-{4-[3-(furan-2-yl)-acryloyl]-piperazin-1-yl]-phenyl)-2-oxo-oxazolidin-5-ylmethyl]thiourea] | 2 (≈ 4.22 µM) | 0.5 (≈ 1.06 µM) | 1 (≈ 2.11 µM) | 2 (≈ 4.22 µM) | –
CC(=S)NC[C@H]1CN(c2ccc(N3CCN(C(=O)C=Cc4ccc(O)cc4)CC3)c(F)c2)C(=O)O1 [Compound 64, (S)-N-[3-(3-Fluoro-4-{4-[3-(4-hydroxyphenyl)-acryloyl]-piperazin-1-yl]-phenyl)-2-oxo-oxazolidin-5-ylmethyl]thioacetamide] | – | – | – | – | MIC [1]: 0.5 µg/mL (≈ 1 µM); MIC [2, 9]: 0.25 µg/mL (≈ 0.501 µM); MIC [3, 10]: 0.25 µg/mL (≈ 0.501 µM); MIC [4, 11]: 0.25 µg/mL (≈ 0.501 µM)
CC(=O)NC[C@H]1CN(c2ccc(N3CCN(C/C=C/c4ccccc4)CC3)c(F)c2)C(=O)O1 (stereo in doubt) | – | – | – | – | melting point: 134 to 136 °C
(S)-N-[3-(3-Fluoro-4-{4-[3-(4-hydroxyphenyl)-acryloyl]-piperazin-1-yl]-phenyl)-2-oxo-oxazolidin-5-yl methyl thiourea [Compound 124] | – | – | – | – | MIC (μg/ml) in vitro activity in gram positive organisms, SA [1, 5]: 1 µg/mL; MIC (μg/ml) in vitro activity in gram positive organisms, EF [3, 12]: 1 µg/mL; MIC (μg/ml) in vitro activity in gram positive organisms, SA [4, 13]: 1 µg/mL
CC(=O)NC[C@H]1CN(c2ccc(N3CCN(C(=O)C=Cc4ccc(O)cc4)CC3)c(F)c2)C(=O)O1 [Compound 05, (S)-N-[3-(3-Fluoro-4-{4-[3-(4-hydroxyphenyl)-acryloyl]-piperazin-1-yl]-phenyl)-2-oxo-oxazolidin-5-ylmethyl]acetamide] | – | – | – | – | MIC [1]: 1 µg/mL (≈ 2.07 µM); MIC [2, 9]: 0.5 µg/mL (≈ 1.04 µM); MIC [3, 10]: 0.5 µg/mL (≈ 1.04 µM); MIC [4, 11]: 2 µg/mL (≈ 4.14 µM)
(S)-N-[3-{4-(4-(3-Benzo[1,3]-dioxol-5-yl-acryloyl)-piperazin-1-yl}-3-fluorophenyl]-2-oxo-oxazolidin-5-yl methyl thiourea [Compound 125] | – | – | – | – | MIC (μg/ml) in vitro activity in gram positive organisms, SA [1, 5]: 1 µg/mL; MIC (μg/ml) in vitro activity in gram positive organisms, EF [3, 12]: 0.5 µg/mL; MIC (μg/ml) in vitro activity in gram positive organisms, SA [4, 13]: 4 µg/mL
CC(=O)NC[C@H]1CN(c2ccc(N3CCN(C(=O)CO)CC3)c(F)c2)C(=O)O1 [Eperzolid, reference compound] | – | – | – | – | MIC (μg/ml) in vitro activity in gram positive organisms, SA [1, 5]: 2 µg/mL (≈ 5.07 µM); MIC (μg/ml) in vitro activity in gram positive organisms, EF [3, 12]: 2 µg/mL (≈ 5.07 µM); MIC (μg/ml) in vitro activity in gram positive organisms, SA [4, 13]: 4 µg/mL (≈ 10.1 µM)
NC(=S)NC[C@H]1CN(c2ccc(N3CCN(C(=O)C=Cc4c[nH]c5ccccc45)CC3)c(F)c2)C(=O)O1 [Compound 126, (S)-N-[3-(3-Fluoro-4-{4-[3-(1H-indol-3-yl)-acryloyl]-piperazin-1-yl]-phenyl)-2-oxo-oxazolidin-5-ylmethyl]thiourea] | 1 (≈ 1.91 µM) | 0.5 (≈ 0.957 µM) | 1 (≈ 1.91 µM) | 1 (≈ 1.91 µM) | –

More lines, main results first:

MIC [1, 5] [µg/mL] | MIC [2, 6] [µg/mL] | MIC [3, 7] [µg/mL] | MIC [4, 8] [µg/mL] | Molecule | other results
1 (≈ 2.04 µM) | 0.5 (≈ 1.02 µM) | 0.25 (≈ 0.511 µM) | 1 (≈ 2.04 µM) | NC(=S)NC[C@H]1CN(c2ccc(N3CCN(C(=O)/C=C/c4cccs4)CC3)c(F)c2)C(=O)O1 [Compound 123, (3/-N-[3-(3-Fluoro-4-{4-(thiophen-2-yl)-acryloyl]-piperazineyl]-phenyl)-2-oxo-oxazolidin-5-yl-methyl]thiourea] | melting point: 154 to 157 °C
1 (≈ 2.12 µM) | 0.5 (≈ 1.06 µM) | 0.5 (≈ 1.06 µM) | 0.5 (≈ 1.06 µM) | CC(=S)NC[C@H]1CN(c2ccc(N3CCN(C(=O)C=Cc4ccco4)CC3)c(F)c2)C(=O)O1 [Compound 66, (S)-N-[3-(3-Fluoro-4-{4-[3-(furan-2-yl)-acryloyl]-piperazin-1-yl]-phenyl)-2-oxo-oxazolidin-5-ylmethyl]thioacetamide] | –
0.5 (≈ 1.06 µM) | 1 (≈ 2.12 µM) | 1 (≈ 2.12 µM) | – | CC(=O)NC[C@H]1CN(c2ccc(N3CCN(C(=O)/C=C/c4cccs4)CC3)c(F)c2)C(=O)O1 [Compound 01] | melting point: 223 to 225 °C
2 (≈ 5.93 µM) | 4 (≈ 11.9 µM) | 4 (≈ 11.9 µM) | 4 (≈ 11.9 µM) | CC(=O)NC[C@H]1CN(c2ccc(N3CCOCC3)c(F)c2)C(=O)O1 [Linezolid, reference compound] | –
1 (≈ 2.05 µM) | 2 (≈ 4.09 µM) | 0.5 (≈ 1.02 µM) | 0.5 (≈ 1.02 µM) | CC(=S)NC[C@H]1CN(c2ccc(N3CCN(C(=O)C=Cc4cccs4)CC3)c(F)c2)C(=O)O1 [Compound 70, (S)-N-[3-(3-Fluoro-4-{4-[3-(thiophen-2-yl)-acryloyl]-piperazinyl]-phenyl)-2-oxo-oxazolidin-5-ylmethyl]thioacetamide] | –
